These compounds were tested against T1, human GLUT1 (Homo sapiens, UniProt P11166) (assay: [3H]-deoxy-D-glucose uptake assay, GLUT1). Conditions: [3H]-deoxy-D-glucose uptake in HEK293 cells stably expressing human GLUT1.
T1 construct: expressed in transfected cells
T1 sequence (P11166 1-492): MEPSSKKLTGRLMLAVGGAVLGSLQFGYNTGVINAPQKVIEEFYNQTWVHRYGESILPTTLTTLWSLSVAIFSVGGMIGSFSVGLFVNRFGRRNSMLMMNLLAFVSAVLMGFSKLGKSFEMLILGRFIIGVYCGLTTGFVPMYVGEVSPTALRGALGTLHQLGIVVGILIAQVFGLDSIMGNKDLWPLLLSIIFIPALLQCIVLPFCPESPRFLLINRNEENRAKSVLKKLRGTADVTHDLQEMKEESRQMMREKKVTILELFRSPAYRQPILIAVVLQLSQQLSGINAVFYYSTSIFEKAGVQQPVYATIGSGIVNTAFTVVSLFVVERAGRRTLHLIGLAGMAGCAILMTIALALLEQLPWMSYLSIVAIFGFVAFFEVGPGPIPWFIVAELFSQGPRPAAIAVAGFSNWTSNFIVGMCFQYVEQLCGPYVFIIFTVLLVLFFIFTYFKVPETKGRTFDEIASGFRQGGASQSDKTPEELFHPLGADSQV
Format: cell-based
Protocol: HEK293 cells were engineered to stably express either human GLUT1, GLUT2, GLUt3 or GLUT4 by transfection with the pReceiver-Lv105 plasmid, containing either hGLUT1, hGLUT2, hGLUT3, or hGLUT4 gene constructs with lipofectamine 2000, hGLUT1- hGLUT2- hGLUT3- or hGLUT4-overexpressing polyclonal populations were isolated under purinomycin selective pressure (1 μg/ml) and maintained in Dulbecco's modified Eagle's medium supplemented with 1 μg/ml purinomycin+10% foetal bovine serum (FBS).
60,000 cells per well were seeded overnight into poly-D-lysine coasted 96-well plates. […] 90 μl of test compounds were added in glucose-free uptake buffer and cells were incubated at 37° C. for 30 min.
Cells were then washed twice with ice-cold PBS and 100 μl of Microscint-20 was added per well. Glucose uptake was quantified with a scintillation counter. The half maximal inhibitory concentration (IC50) (a measure of the effectiveness of the test compound in inhibiting glucose uptake) was determined.

Compound | GLUT1 pIC50
COc1ccc(NC(=O)N2CCN(Cc3c(-c4ccc(Cl)cc4)nc4ccc(-c5ccccc5)cn34)CC2)cc1 [Compound 68] | + (pIC50 4.00-4.99)
Cc1ccc(C(=O)N2CCN(Cc3c(-c4ccc(Cl)cc4)nc4ccc(-c5ccccc5)cn34)CC2)cc1 [Compound 69] | +++ (pIC50 ≧ 6.00)
COc1ccc(C(=O)N2CCN(Cc3c(-c4ccc(F)cc4)nc4ccc(-c5ccccc5)cn34)CC2)cc1 [Compound 70] | +++ (pIC50 ≧ 6.00)
COc1cccc(-c2nc3ccc(-c4ccccc4)cn3c2CN2CCN(C(=O)c3ccccc3F)CC2)c1 [Compound 71] | +++ (pIC50 ≧ 6.00)
c1ccc(-c2ccc3nc(-c4ccncc4)c(CN4CCOCC4)n3c2)cc1 [Compound 72] | +− (pIC50 < 4.00)
COCc1c(-c2ccc(Cl)cc2)nc2ccc(-c3ccccc3)cn12 [Compound 73] | + (pIC50 4.00-4.99)
Clc1ccc(-c2nc3cnc(-c4ccccc4)cn3c2CN2CCOCC2)cc1 [Compound 75] | +++ (pIC50 ≧ 6.00)
Fc1ccc(-c2nc3ccc(-c4ccccc4)cn3c2CN2CCOCC2)cc1 [Compound 76] | + (pIC50 4.00-4.99)
Clc1ccc(-c2nc3ncc(-c4ccccc4)cn3c2CN2CCOCC2)cc1 [Compound 77] | +− (pIC50 < 4.00)
CCNC(=O)c1nc2ccc(-c3ccccc3)cn2c1CN1CCOCC1 [Compound 78] | +− (pIC50 < 4.00)
Fc1cccc(-c2ccc3nc(-c4ccc(Cl)cc4)c(CN4CCOCC4)n3c2)c1 [Compound 81] | + (pIC50 4.00-4.99)
Clc1ccc(-c2nc3ccc(-c4ccncc4)cn3c2CN2CCOCC2)cc1 [Compound 82] | ++ (pIC50 5.00-5.99)
Clc1ccc(-c2nc3ccc(-c4cccnc4)cn3c2CN2CCOCC2)cc1 [Compound 83] | ++ (pIC50 5.00-5.99)
COc1cccc(-c2ccc3nc(-c4ccc(Cl)cc4)c(CN4CCOCC4)n3c2)c1 [Compound 84] | ++ (pIC50 5.00-5.99)
COc1ccccc1-c1ccc2nc(-c3ccc(Cl)cc3)c(CN3CCOCC3)n2c1 [Compound 85] | ++ (pIC50 5.00-5.99)
COc1ccc(-c2ccc3nc(-c4ccc(Cl)cc4)c(CN4CCOCC4)n3c2)cc1 [Compound 86] | + (pIC50 4.00-4.99)
Clc1ccc(-c2nc3ccc(C4CC4)cn3c2CN2CCOCC2)cc1 [Compound 87] | ++ (pIC50 5.00-5.99)
CC(C)(C)OC(=O)N1CCN(Cc2c(-c3ccc(Cl)cc3)nc3ccc(-c4ccccc4)cn23)CC1 [Compound 88] | +− (pIC50 < 4.00)

Compound | GLUT1 pIC50
Clc1ccc(-c2nc3ccc(-c4ccccc4)cn3c2CN2CCNCC2)cc1 [Compound 89] | + (pIC50 4.00-4.99)
O=S(=O)(c1cccc(F)c1)N1CCN(Cc2c(-c3ccc(Cl)cc3)nc3ccc(-c4ccccc4)cn23)CC1 [Compound 90] | +− (pIC50 < 4.00)
N#Cc1cccc(-c2ccc3nc(-c4ccc(Cl)cc4)c(CN4CCOCC4)n3c2)c1 [Compound 92] | +− (pIC50 < 4.00)
NC(=O)c1ccccc1-c1ccc2nc(-c3ccc(Cl)cc3)c(CN3CCOCC3)n2c1 [Compound 94] | + (pIC50 4.00-4.99)
NC(=O)c1ccc(-c2ccc3nc(-c4ccc(Cl)cc4)c(CN4CCOCC4)n3c2)cc1 [Compound 95] | + (pIC50 4.00-4.99)
CN(C)Cc1c(-c2ccc(Cl)cc2)nc2ccc(-c3ccccc3)cn12 [Compound 97] | + (pIC50 4.00-4.99)
Clc1ccc(-c2nc3ccc(-c4ccccc4)cn3c2CN2CCCCC2)cc1 [Compound 98] | + (pIC50 4.00-4.99)
N#Cc1cccc(-c2nc3ccc(-c4ccccc4)cn3c2CN2CCOCC2)c1 [Compound 100] | + (pIC50 4.00-4.99)
COc1ccc(-c2nc3ccc(-c4ccccc4)cn3c2CN2CCOCC2)cc1 [Compound 101] | ++ (pIC50 5.00-5.99)
COc1cccc(-c2nc3ccc(-c4ccccc4)cn3c2CN2CCOCC2)c1 [Compound 102] | ++ (pIC50 5.00-5.99)
c1ccc(-c2ccc3nc(-c4ccccc4)c(CN4CCOCC4)n3c2)cc1 [Compound 103] | + (pIC50 4.00-4.99)
COc1ccccc1-c1nc2ccc(-c3ccccc3)cn2c1CN1CCOCC1 [Compound 104] | + (pIC50 4.00-4.99)
Clc1ccccc1-c1nc2ccc(-c3ccccc3)cn2c1CN1CCOCC1 [Compound 105] | ++ (pIC50 5.00-5.99)
N#Cc1ccc(-c2nc3ccc(-c4ccccc4)cn3c2CN2CCOCC2)cc1 [Compound 106] | +− (pIC50 < 4.00)
Clc1cccc(-c2nc3ccc(-c4ccccc4)cn3c2CN2CCOCC2)c1 [Compound 107] | ++ (pIC50 5.00-5.99)
Clc1ccc(-c2nc3ccc(Br)cn3c2CN2CCOCC2)cc1 [Compound 124] | + (pIC50 4.00-4.99)
COc1ccc2nc(-c3ccc(Cl)cc3)c(CN3CCOCC3)n2c1 [Compound 154] | + (pIC50 4.00-4.99)

Continued, values first:

GLUT1 pIC50 | Compound
+− (pIC50 < 4.00) | NC(=O)c1ccc(-c2nc3ccc(-c4ccccc4)cn3c2CN2CCOCC2)cc1 [Compound 109]
+ (pIC50 4.00-4.99) | Clc1ccc(-c2nc3ccc(-c4cncnc4)cn3c2CN2CCOCC2)cc1 [Compound 110]
++ (pIC50 5.00-5.99) | FC(F)(F)c1ccc(-c2nc3ccc(-c4ccccc4)cn3c2CN2CCOCC2)cc1 [Compound 112]
+++ (pIC50 ≧ 6.00) | Cc1ccccc1-c1ccc2nc(-c3ccc(Cl)cc3)c(CN3CCOCC3)n2c1 [Compound 115]
+ (pIC50 4.00-4.99) | CCN(CC)C(=O)c1ccc2nc(-c3ccc(Cl)cc3)c(CN3CCOCC3)n2c1 [Compound 117]
+ (pIC50 4.00-4.99) | CCNC(=O)c1ccc2nc(-c3ccc(Cl)cc3)c(CN3CCOCC3)n2c1 [Compound 118]
++ (pIC50 5.00-5.99) | Clc1ccc(-c2nc3ccc(-c4cccs4)cn3c2CN2CCOCC2)cc1 [Compound 119]
++ (pIC50 5.00-5.99) | Clc1ccc(-c2nc3ccc(-c4ccccn4)cn3c2CN2CCOCC2)cc1 [Compound 120]
+− (pIC50 < 4.00) | CCNC(=O)c1cccc2nc(-c3ccc(Cl)cc3)c(CN3CCOCC3)n12 [Compound 121]
++ (pIC50 5.00-5.99) | Clc1ccc(-c2nc3ccc(N4CCOCC4)cn3c2CN2CCOCC2)cc1 [Compound 122]
+ (pIC50 4.00-4.99) | CN1CCN(Cc2c(-c3ccc(Cl)cc3)nc3ccc(-c4ccccc4)cn23)CC1 [Compound 125]
+++ (pIC50 ≧ 6.00) | COc1ccccc1C(=O)N1CCN(Cc2c(-c3ccc(Cl)cc3)nc3ccc(-c4ccccc4)cn23)CC1 [Compound 128]
+++ (pIC50 ≧ 6.00) | COc1cccc(C(=O)N2CCN(Cc3c(-c4ccc(Cl)cc4)nc4ccc(-c5ccccc5)cn34)CC2)c1 [Compound 129]
++ (pIC50 5.00-5.99) | O=C1CN(Cc2c(-c3ccc(Cl)cc3)nc3ccc(-c4ccccc4)cn23)CCN1 [Compound 130]
+++ (pIC50 ≧ 6.00) | O=C(C1CC1)N1CCN(Cc2c(-c3ccc(Cl)cc3)nc3ccc(-c4ccccc4)cn23)CC1 [Compound 133]
++ (pIC50 5.00-5.99) | O=C1CN(Cc2c(-c3ccc(Cl)cc3)nc3ccc(-c4ccccc4)cn23)CCN1Cc1ccccc1 [Compound 134]
+ (pIC50 4.00-4.99) | c1ccc(-c2ccc3nc(-c4cccnc4)c(CN4CCOCC4)n3c2)cc1 [Compound 139]
+++ (pIC50 ≧ 6.00) | O=C(c1ccccn1)N1CCN(Cc2c(-c3ccc(Cl)cc3)nc3ccc(-c4ccccc4)cn23)CC1 [Compound 144]
+++ (pIC50 ≧ 6.00) | O=C(c1cccnc1)N1CCN(Cc2c(-c3ccc(Cl)cc3)nc3ccc(-c4ccccc4)cn23)CC1 [Compound 145]
+++ (pIC50 ≧ 6.00) | O=C(c1ccncc1)N1CCN(Cc2c(-c3ccc(Cl)cc3)nc3ccc(-c4ccccc4)cn23)CC1 [Compound 152]
+− (pIC50 < 4.00) | FC(F)(F)Oc1ccccc1-c1ccc2nc(-c3ccc(Cl)cc3)c(CN3CCOCC3)n2c1 [Compound 153]
++ (pIC50 5.00-5.99) | Cc1ccc(-c2nc3ccc(-c4ccccc4)cn3c2CN2CCOCC2)cc1 [Compound 157]
+ (pIC50 4.00-4.99) | Clc1ccc(-c2nc3ccc(Oc4ccccc4)cn3c2CN2CCOCC2)cc1 [Compound 158]
+++ (pIC50 ≧ 6.00) | O=C(c1cscn1)N1CCN(Cc2c(-c3ccc(Cl)cc3)nc3ccc(-c4ccccc4)cn23)CC1 [Compound 159]
+ (pIC50 4.00-4.99) | O=C1CCCN1c1ccc2nc(-c3ccc(Cl)cc3)c(CN3CCOCC3)n2c1 [Compound 162]
+ (pIC50 4.00-4.99) | CCOC(=O)c1ccc2nc(-c3ccc(Cl)cc3)c(CN3CCOCC3)n2c1 [Compound 163]
+++ (pIC50 ≧ 6.00) | O=C(c1ccc(F)cc1)N1CCN(Cc2c(-c3ccc(Cl)cc3)nc3cnc(-c4ccccc4)cn23)CC1 [Compound 168]
